For experiment [1], the system named is CD8^+ T cells. The class given is in vivo, mouse.
The subject of experiment [2] is naive, epitope-specific precursor CD8^+ T cells. The arrangement: species or system mouse. The following applies: for Naive epitope-specific CD8^+ T cells per mouse: spleen and lymph nodes of individual naive H-2^b mice, average, n = 15–19, tetramer-based enrichment.
Experiment [3] concerns CD8^+ T cells. Particulars: mouse, in vivo.
Experiment [4] deals with CD8^+ T cells. The following applies: mouse, in vivo. The source holds these as a separate data set.
Experiment [5] has as its system naive, epitope-specific precursor CD8^+ T cells. Particulars: indirect titration of TCR transgenic T cells; cited from earlier work.
In experiment [6] the test system is CD8^+ T cells. The following applies: mouse, in vivo. This is another data set of the same source.

The values below come from PMC3319690 (Journal of Immunology (Baltimore, Md. : 1950), 2008).

As for GP33–41, the “Response to single peptide immunization relative to peptide pool immunization” value in the experiment on CD8^+ T cells [1] (Fig. 8A vs Fig. 6, wild-type GP33–41 peptide) was roughly 2 fold. In the experiment on CD8^+ T cells [1] (pool of 28 peptides, day 11–12, H-2^b mice), the “CD8^+ T cell response after peptide pool immunization” value was “relatively strongly recognized”. Further, the “Precursor frequency relative to NP396–404/D^b-specific precursors” value in experiment [2] (naive H-2^b mice) came out at 4 fold. Also, the “Naive epitope-specific CD8^+ T cells per mouse” value in experiment [2] is recorded as 449 CD8^+ T cells. The “IFN-γ response to wild-type epitopes in GPVNPV-inoculated mice” value in the experiment with CD8^+ T cells [3] is given as “significantly diminished amounts of IFN-γ”. For the same substance, the “CD8^+ T cell response in rVACV-immunized mice” value with CD8^+ T cells [4] is reported as “the LCMV-specific response remained focused on the major dominant epitopes”. Further, the “Previous estimate of GP33–41/D^b-specific precursors” value in experiment [5] was 100–200 precursors. The “CD8^+ T cell response in F1 hybrid mice” value with CD8^+ T cells [6] is “still elicited robust T cell responses”.
In the case of “GP276–286 (SGVENPGGYCL; UniProt P09991 276-286, looked up, fragment)”, the “IFN-γ response to wild-type epitopes in GPVNPV-inoculated mice” value with CD8^+ T cells [3] is “significantly diminished amounts of IFN-γ”.
In the case of “NP205–212 (YTVKYPNL; UniProt P09992 205-212, looked up, fragment)”, the “Naive epitope-specific CD8^+ T cells per mouse” value in experiment [2] was determined as 57 CD8^+ T cells.
